These are literature values, as cited in the PKSmart pharmacokinetics tables (Seal et al. 2025).

Usually MRT stands for a mean duration of stay, worked out from the concentration-time curve. A word on the Vd: it is the apparent volume that relates the amount in the body to the concentration in plasma or blood. As usually defined, the clearance is the rate of elimination divided by the concentration. Broadly, the half-life is the time in which the quantity being followed falls by half. What is called fraction unbound is the share of the substance not bound to proteins or other matrix.

A short description of the series: Lombardo, Berellini, Obach 2018, Drug Metab Dispos 46:1466, doi 10.1124/dmd.118.082966. The settings on record: human; for MRT / Vd / clearance / half-life: in vivo, iv; for fraction unbound: plasma.

Consider `O=C(O)c1cccc(Cc2cc(Cl)ccc2OCc2ccc(Cl)cc2F)n1`, for which the MRT was 6.4 h, the Vd is 0.77 L/kg, the clearance was 2 mL/min/kg and the half-life is 8.15 h.

For `CS(=O)(=O)c1ccc([C@@H](O)[C@@H](COC(=O)CN)NC(=O)C(Cl)Cl)cc1`, the MRT was 0.23 h, the Vd is 0.13 L/kg, the clearance was 9.6 mL/min/kg and the half-life is 0.28 h. Moreover, the fraction unbound was 0.27.

On to `COCC(=O)Nc1c(I)c(C(=O)NCC(O)CO)c(I)c(C(=O)N(C)CC(O)CO)c1I` (stereo not drawn), for which the MRT is 2.6 h, the Vd was 0.22 L/kg, the clearance was 1.4 mL/min/kg and the half-life is 2.6 h. Also, the fraction unbound was 0.99.

In the case of `Cc1c(-c2ccc(O)cc2)n(Cc2ccc(OCCN3CCCCCC3)cc2)c2ccc(O)cc12`, the fraction unbound is 0.02.

As to `O=C1NC(=O)C(c2cn3ccccc3n2)=C1C1=CN2CCN(C(=O)N3CCCCC3)C[C@@H]3C=C(F)C=C1[C@H]32`, the MRT was 1.9 h, the Vd was 1.2 L/kg, the clearance is 10.3 mL/min/kg and the half-life is 2.7 h. Also, the fraction unbound was 0.02.

For the compound `OC[C@H]1O[C@@H]2O[C@H]3[C@H](O)[C@@H](O)[C@@H](O[C@H]4[C@H](O)[C@@H](O)[C@@H](O[C@H]5[C@H](O)[C@@H](O)[C@@H](O[C@H]6[C@H](O)[C@@H](O)[C@@H](O[C@H]7[C@H](O)[C@@H](O)[C@@H](O[C@H]8[C@H](O)[C@@H](O)[C@@H](O[C@H]1[C@H](O)[C@H]2O)O[C@@H]8CO)O[C@@H]7CO)O[C@@H]6CO)O[C@@H]5CO)O[C@@H]4CO)O[C@@H]3CO`, the MRT is 1.9 h, the Vd is 0.21 L/kg, the clearance was 1.8 mL/min/kg and the half-life was 1.6 h.

On to `CCCn1c(=O)[nH]c(=O)c2nc[nH]c21`, for which the mean residence time (MRT) is 2.6 h, the Vd was 0.63 L/kg, the clearance was 4 mL/min/kg and the half-life is 1.8 h. Also, the unbound share (fraction unbound) is 0.55.

With `CS(=O)(=O)OCCN(CCBr)c1c(C(=O)NCCOP(=O)(O)O)cc([N+](=O)[O-])cc1[N+](=O)[O-]`, the MRT is 0.32 h, the Vd was 0.86 L/kg, the clearance was 44.8 mL/min/kg and the half-life was 0.1 h.

Turning to `CCC(C)n1ncn(-c2ccc(N3CCN(c4ccc(OCC5COC(Cn6cncn6)(c6ccc(Cl)cc6Cl)O5)cc4)CC3)cc2)c1=O` (stereo not drawn), the Vd was 7.4 L/kg, the clearance was 5.1 mL/min/kg and the half-life was 25 h.

As to `CC[C@]1(O)C[C@@H]2CN(CCc3c([nH]c4ccccc34)[C@@](C(=O)OC)(c3cc4c(cc3OC)N(C=O)[C@H]3[C@@](O)(C(=O)OC)[C@H](OC(C)=O)[C@]5(CC)C=CCN6CC[C@]43[C@@H]65)C2)C1`, the mean residence time (MRT) was 20 h, the Vd is 2.4 L/kg, the clearance was 2 mL/min/kg and the half-life is 23 h.

As for `COC(=O)C1[C@@H](O)CC[C@H]2CN3CCc4c([nH]c5ccccc45)[C@@H]3C[C@@H]12` (stereo partly drawn), the MRT was 0.5 h, the Vd was 0.48 L/kg, the clearance is 14.6 mL/min/kg and the half-life was 1.5 h.

Consider `CCCN(CCc1cccs1)[C@H]1CCc2c(O)cccc2C1`, for which the MRT is 2.6 h, the Vd was 5.7 L/kg, the clearance was 37 mL/min/kg and the half-life is 4 h. For the same compound, the fraction unbound was 0.08.

Take `Oc1cccc(-c2c3nc(c(-c4cccc(O)c4)c4ccc([nH]4)c(-c4cccc(O)c4)c4ccc([nH]4)c(-c4cccc(O)c4)c4nc2CC4)C=C3)c1`: the clearance is 0.06 mL/min/kg, the half-life was 91.5 h and the fraction unbound is 0.14.

On to `Cc1c(F)cc(C(=O)NC2CC2)cc1-c1ccc(C(=O)NCC(C)(C)C)cn1`, for which the MRT is 7.38 h, the Vd is 1.67 L/kg and the half-life is 6.95 h.

As to `CN(C)C(=O)Oc1cc(OC(=O)N(C)C)cc(C(O)CNC(C)(C)C)c1` (stereo not drawn), the mean residence time MRT is 1.4 h, the Vd is 1.6 L/kg, the clearance was 18 mL/min/kg and the half-life was 2.6 h.

Take `CC1CNc2c(cccc2S(=O)(=O)NC(CCCNC(=N)N)C(=O)N2CC[C@@H](C)CC2C(=O)O)C1` (stereo partly drawn): the MRT is 0.57 h, the Vd was 0.17 L/kg, the clearance was 5 mL/min/kg and the half-life was 0.4 h. For the same compound, the fraction unbound is 0.46.

As to `COc1ccc(C2(C#N)CCC(C(=O)O)CC2)cc1OC1CCCC1` (stereo not drawn), the MRT is 8.5 h, the Vd was 0.23 L/kg, the clearance is 0.5 mL/min/kg and the half-life is 7.9 h.

As for `Cc1c(Cl)cccc1Nc1ccccc1C(=O)O`, the MRT is 1.13 h, the Vd was 0.16 L/kg, the clearance is 2.37 mL/min/kg and the half-life was 2.15 h. Moreover, the fraction unbound is 0.003.

As to `Nc1ccn([C@@H]2CO[C@H](CO)S2)c(=O)n1`, the mean residence time MRT is 3.6 h, the Vd is 0.84 L/kg, the clearance was 3.9 mL/min/kg and the half-life was 8.92 h.

Take `CCOC(=O)C1(c2ccccc2)CCN(CCC(O)c2ccccc2)CC1` (stereo not drawn): the MRT was 4.32 h, the Vd was 5.7 L/kg, the clearance is 22 mL/min/kg and the half-life is 3.22 h.

Turning to `CC(=O)O[C@H]1C[C@]2(O)[C@H]3CC[C@H]4C[C@H](O[C@H]5C[C@@H](O)[C@@H](O[C@H]6C[C@@H](O)[C@@H](O[C@H]7C[C@@H](O)[C@@H](O)[C@H](C)O7)[C@H](C)O6)[C@H](C)O5)CC[C@@]4(C)[C@H]3CC[C@]2(C)[C@H]1C1=CC(=O)OC1`, the MRT is 72.3 h, the Vd is 0.78 L/kg, the clearance is 8.7 mL/min/kg and the half-life is 51.6 h. Further, the fraction unbound was 0.07.

For the compound `NCCCCC(NC(=O)C(Cc1cc(Br)c(O)c(Br)c1)NC(=O)N1CCC(N2Cc3ccccc3NC2=O)CC1)C(=O)N1CCN(c2ccncc2)CC1` (stereo not drawn), the MRT was 1.9 h, the Vd was 0.31 L/kg, the clearance was 2.6 mL/min/kg and the half-life is 2.5 h.

`CCN(CC)CCS(=O)(=O)[C@@H]1CCN2C(=O)c3coc(n3)CC(=O)C[C@H](O)/C=C(C)/C=C\CNC(=O)/C=C/[C@@H](C)[C@H](C(C)C)OC(=O)C12` (stereo partly drawn): the MRT is 0.41 h, the Vd was 0.39 L/kg, the clearance was 16 mL/min/kg and the half-life was 0.74 h. For the same compound, the fraction unbound was 0.82.

Take `COc1ccc(/C=C\c2cc(OC)c(OC)c(OC)c2)cc1NC(=O)C(N)CO` (stereo not drawn): the MRT was 0.32 h, the Vd was 0.44 L/kg, the clearance was 22.6 mL/min/kg and the half-life was 0.26 h.

For the compound `CON=C(C(=O)NC1C(=O)N2C(C(=O)[O-])=C(C[N+]34CCC(C(N)=O)(CC3)CC4)CSC12)c1nsc(N)n1` (stereo not drawn), the mean residence time (MRT) was 2.6 h, the Vd was 0.27 L/kg, the clearance is 1.7 mL/min/kg and the half-life is 2.2 h.

Turning to `CNC(=O)Nc1c(OCCN2CCCC2)c(OC)c2occc2c1OC`, the MRT is 4.2 h, the Vd was 0.8 L/kg, the clearance was 3.2 mL/min/kg and the half-life is 5 h.

Turning to `CN1C(=O)C(O)C[C@H]1c1cccnc1` (stereo partly drawn), the MRT is 7.9 h, the Vd is 0.85 L/kg, the clearance is 1.8 mL/min/kg and the half-life was 5.9 h.

For `COC(=O)C1=C(C)NC(C)=C(C(=O)OC(C)C)C1c1cccc2nonc12` (stereo not drawn), the MRT is 1 h, the Vd is 1.5 L/kg, the clearance was 26 mL/min/kg and the half-life was 3.3 h. Moreover, the fraction unbound was 0.04.

With `CON=C(C(=O)NC1C(=O)N2C(C(=O)O)=C(C)CS[C@H]12)c1csc(N)n1` (stereo partly drawn), the MRT was 2.5 h, the Vd was 0.28 L/kg, the clearance was 1.9 mL/min/kg and the half-life was 2.1 h. Besides, the fraction unbound is 0.78.

`Cc1nccn1CC1CCc2c(c3ccccc3n2C)C1=O` (stereo not drawn): the MRT was 5.2 h, the Vd was 1.8 L/kg, the clearance was 5.8 mL/min/kg and the half-life was 3.4 h.

Regarding `COC(C(=O)N1Cc2[nH]nc(NC(=O)c3ccc(N4CCN(C)CC4)cc3)c2C1)c1ccccc1` (stereo not drawn), the MRT was 6.8 h, the Vd is 2.5 L/kg, the clearance is 6.1 mL/min/kg and the half-life was 25 h.

On to `CC(C(=O)O)c1ccc2c(c1)[nH]c1ccc(Cl)cc12` (stereo not drawn), for which the MRT was 7.2 h, the Vd is 0.22 L/kg, the clearance is 0.51 mL/min/kg and the half-life is 9.9 h. Moreover, the fraction unbound is 0.001.

With `CN1C(=O)C(O)N=C(c2ccccc2Cl)c2cc(Cl)ccc21` (stereo not drawn), the MRT was 6.7 h, the Vd is 1.6 L/kg, the clearance was 4 mL/min/kg and the half-life was 4.9 h.

With `Oc1ccc([C@H]2CNCCc3c2cc(O)c(O)c3Cl)cc1`, the MRT was 0.2 h, the Vd is 0.5 L/kg, the clearance is 41.5 mL/min/kg and the half-life was 1 h. Further, the fraction unbound was 0.12.
